Source: ChEMBL document CHEMBL1140907, “Derivatives of 5-nitro-furan-2-carboxylic acid carbamoylmethyl ester inhibit RNase H activity associated with HIV-1 reverse transcriptase” (J Med Chem, 2009)
The source made the active and inactive calls. The rule behind the calls is not given here.

Key:
[1] = molecular target: Human immunodeficiency virus type 1 reverse transcriptase (Human immunodeficiency virus 1) (UniProt Q72547); assay: (§1) Inhibition of HIV1 LAI clade B reverse transcriptase RNase H activity by real time monitoring assay
[2] = Cytotoxicity against IL2 and anti-CD3-stimulated CD4 expressing primary T cells at 25 to 30 uM by MTT assay; type: cell-based; conditions: t-cell
[3] = molecular target: Human immunodeficiency virus type 1 integrase (Human immunodeficiency virus 1) (UniProt Q7ZJM1); assay: Inhibition of HIV1 integrase by real time monitoring assay
Escherichia coli = assay: Inhibition of Escherichia coli RNase H by real time monitoring assay
[4] = Inhibition of murine leukemia virus reverse transcriptase by real time monitoring assay
[5] = Cytotoxicity against T cells at >25 uM by MTT assay; type: cell-based; conditions: t-cell
[6] = molecular target: T1, Human immunodeficiency virus type 1 reverse transcriptase (Human immunodeficiency virus 1, UniProt Q72547); assay: Inhibition of HIV1 LAI clade C 93IN101 reverse transcriptase RNase H activity by real time monitoring assay
[7] = Cytotoxicity against CD4-CXCR4 expressing human NP2 cells at >25 uM by MTT assay; type: cell-based
[8] = molecular target: T1, Human immunodeficiency virus type 1 reverse transcriptase; assay: as §1
[9] = tested on: Human immunodeficiency virus 1; assay: Inhibition of HIV1 NL4-3 replication in CD4 expressing human T cells assessed as decrease in p24 antigen production at 25 uM after 4 days by ELISA; type: functional, organism-based; conditions: T-cell
[10] = tested on: Human immunodeficiency virus 1; assay: Inhibition of HIV1 NL4-3 replication in CD4-CXCR4 expressing human NP2 cells assessed as decrease in p24 antigen production after 4 days by ELISA; conditions: Human immunodeficiency virus 1, NL4-3, NP2, 96 h
[11] = molecular target: T1, Human immunodeficiency virus type 1 reverse transcriptase; assay: Inhibition of HIV1 LAI CRF01 A_E s93JP-NH1 reverse transcriptase RNase H activity by real time monitoring assay; parameters: species or system 93JP-NH1
[12] = molecular target: T2, Ribonuclease H1 (Homo sapiens) (UniProt O60930); assay: Inhibition of human RNase H1 by real time monitoring assay
T2 sequence (whole entry): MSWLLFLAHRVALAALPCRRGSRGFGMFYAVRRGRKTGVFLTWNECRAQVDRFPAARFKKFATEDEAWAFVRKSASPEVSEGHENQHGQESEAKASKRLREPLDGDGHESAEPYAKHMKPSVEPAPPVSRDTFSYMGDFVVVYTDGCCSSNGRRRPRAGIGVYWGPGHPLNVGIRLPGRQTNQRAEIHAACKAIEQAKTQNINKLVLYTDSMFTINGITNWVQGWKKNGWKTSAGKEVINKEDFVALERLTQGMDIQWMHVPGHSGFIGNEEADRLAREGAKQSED

Human immunodeficiency virus type 1 integrase (Human immunodeficiency virus 1), sequence (Q7ZJM1 as listed by the source): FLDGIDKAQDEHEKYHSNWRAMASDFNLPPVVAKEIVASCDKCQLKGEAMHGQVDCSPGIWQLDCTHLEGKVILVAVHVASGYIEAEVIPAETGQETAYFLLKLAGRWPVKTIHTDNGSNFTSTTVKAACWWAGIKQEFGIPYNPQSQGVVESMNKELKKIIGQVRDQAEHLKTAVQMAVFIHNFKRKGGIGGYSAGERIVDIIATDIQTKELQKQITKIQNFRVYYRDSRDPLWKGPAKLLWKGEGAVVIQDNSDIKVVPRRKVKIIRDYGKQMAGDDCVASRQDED

With `CCOc1cc(N2CCOCC2)cc(OCC)c1NC(=O)COC(=O)c1ccc([N+](=O)[O-])o1` the Activity [1] was “inactive”.

For `O=C(COC(=O)c1ccc([N+](=O)[O-])o1)Nc1ccc(F)cc1F`, the Activity [1] was “inactive”.

With `Cc1ccc(NC(=O)COC(=O)c2ccc([N+](=O)[O-])o2)cc1` the Activity [1] was “inactive”.

In the case of `Cc1ccc(NC(=O)COC(=O)c2ccc([N+](=O)[O-])o2)cc1S(=O)(=O)N1CCCCCC1`, the Activity [1] is reported as “Active”.

In the case of `CCOC(=O)c1c(NC(=O)COC(=O)c2ccc([N+](=O)[O-])o2)sc(C)c1C`, the Activity [1] is reported as “inactive”.

For `O=C1CCC(C(=O)OCC(=O)NC23CC4CC(CC(C4)C2)C3)N1` (centres undefined), the Activity [1] was “inactive”.

With `O=C(COC(=O)c1ccc([N+](=O)[O-])o1)Nc1cc(C(F)(F)F)cc(C(F)(F)F)c1` the Activity [1] was “Active”.

With `O=C(COC(=O)c1ccc([N+](=O)[O-])o1)Nc1ccc(Cl)c(S(=O)(=O)N2CCOCC2)c1` the Activity [1] was “Active”.

For `O=C(COC(=O)c1ccc([N+](=O)[O-])o1)Nc1ncc(C(F)(F)F)cc1Cl`, the Activity [1] was “Active”.

For `O=C(COC(=O)c1cccnc1Cl)NC12CC3CC(CC(C3)C1)C2`, the Activity [1] was “inactive”.

With `O=C(OCC(=O)N(CC1CCCO1)c1nc(-c2ccc(Br)cc2)cs1)c1ccc([N+](=O)[O-])o1` (centres undefined) the Activity [2] was 50%, the Activity [3] was “inactive” and the Activity (Escherichia coli) was “inactive”. For the same compound, the IC50 [4] was 8.6 µM, the Activity [5] was 50% and the IC50 [6] was 32.2 µM. The Activity [7] was 50%, the IC50 [8] was 26.7 µM and the Activity [9] was “Active”. It also gave an IC50 [10] of 22.7 µM and an IC50 [11] of 2.6 µM.

With `O=C(COC(=O)c1ccc[nH]1)NC12CC3CC(CC(C3)C1)C2` the Activity [1] was “inactive”.

For `O=C(COC(=O)c1ccc([N+](=O)[O-])o1)Nc1nc2ccccc2s1`, the Activity [1] was “Active”.

In the case of `CN(C)S(=O)(=O)c1cccc(NC(=O)COC(=O)c2ccc([N+](=O)[O-])o2)c1`, the Activity [1] is reported as “Active”.

In the case of `O=C(COC(=O)c1ccc([N+](=O)[O-])o1)NC12CC3CC(CC(C3)C1)C2`, the Activity [12] is reported as “inactive”, the Activity [2] is reported as 50% and the Activity [3] is reported as “inactive”. The Activity (Escherichia coli) was “inactive”, the IC50 [4] was 8.4 µM and the Activity [5] was 50%. It also gave an IC50 [6] of 26.5 µM, an Activity [7] of 50% and an IC50 [8] of 29.6 µM. The IC50 [11] was 3.8 µM.

In the case of `CCOC(=O)c1sc(N(Cc2ccccc2)C(=O)COC(=O)c2ccc([N+](=O)[O-])o2)nc1C`, the Activity [1] is reported as “inactive”.

In the case of `CCOC(=O)c1c(-c2cccs2)csc1NC(=O)COC(=O)c1ccc([N+](=O)[O-])o1`, the Activity [1] is reported as “inactive”.

In the case of `O=C(COC(=O)c1ccc([N+](=O)[O-])o1)Nc1ccccc1F`, the Activity [1] is reported as “inactive”.

With `O=C(COC(=O)c1ccccn1)NC12CC3CC(CC(C3)C1)C2` the Activity [1] was “inactive”.

For `O=C(COC(=O)c1cncc(Br)c1)NC12CC3CC(CC(C3)C1)C2`, the Activity [1] was “inactive”.
